Measured values taken from the supplement of paper PMC11208160.

Test: recombinant barcode read abundance after kanamycin selection (control-corrected) (log10(CPM+1)); higher = more efficient recombination; sequences stand for … in AGTGCAGAGAAAATCGGCCAGTTTTCTCTGCCTGCAGTCCGCATGCCGT…AGATTTATGCAGCGGACTGCCTTTCTCCCAAAGTGATAAACCGGACAGTATCATGGACCGGTTTTCCCGGTAATCCGTATTTGCAAGGTTGGTTTCACT; site = the 11-nt target
In short: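 A vector carrying a T7-inducible recombinase and the last 73 bp of the bridge RNA received, by Gibson cloning, oligos encoding a promoter, target, barcode and the first 104 bridge RNA bases under J23119. The pooled constructs entered E. coli together with a donor plasmid by electroporation. Selection used chloramphenicol/ampicillin/kanamycin with 0.1 mM IPTG, with chloramphenicol/ampicillin LB agar as the control, each in two replicates. Recombination efficiency is the averaged, control-corrected counts-per-million of barcodes at recombinant junctions, reported as log10(CPM+1).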
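Also: IS621 recombinase and bridge RNA in Escherichia coli cells.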

Row | Sequence | recombinant barcode read abundance (log10)
1 | CCGTCTACTTGGGTTCTAACCTGTTGCTC (site CCGTCTACTGA) | 0.0724
2 | CCGTCTACTTGGGTTCTAACCTGTTGCTC (site CCGTCTACTTA) | 0.0131
3 | CCGTTGTCTTGGGTTCTAACCTGTTGCTA (site CCGTTGTCTTA) | 0.48
4 | CCGTTGTCTTGGGTTCTAACCTGTTGCTA (site GGTCGTACTAG) | 0.0443
5 | CCTAAGTCTTGGGTTCTAACCTGTTGCCA (site CCTAAGTCTTG) | 0.11
6 | CCTAAGTCTTGGGTTCTAACCTGTTGCCA (site GACTTAACTAA) | 0.133
7 | CCTAGAACTTGGGTTCTAACCTGTTGCCT (site CCTAGAACTAG) | 0.134
8 | CCTAGAACTTGGGTTCTAACCTGTTGCCT (site CCTAGACCTAG) | 0.0135
9 | CCTAGAACTTGGGTTCTAACCTGTTGCCT (site CCTAGAGCTAG) | 0.126
10 | CCTAGAACTTGGGTTCTAACCTGTTGCCT (site CCTAGATCTAG) | 0.0929
11 | CCTCATACTTGGGTTCTAACCTGTTGCCA (site CCTCATACTTG) | 0.179
12 | CCTCATACTTGGGTTCTAACCTGTTGCCA (site GGAGTACCTAT) | 0.02
13 | CCTCCCTCTTGGGTTCTAACCTGTTGCTG (site CCTCCCTCTCA) | 2.49
14 | CCTCCCTCTTGGGTTCTAACCTGTTGCTG (site CCTCCCTCTTA) | 0.036
15 | CCTCGATCTTGGGTTCTAACCTGTTGCAT (site CCTCGATCTAT) | 1.59
16 | CCTCGATCTTGGGTTCTAACCTGTTGCAT (site TCTCGATCTAT) | 0.185
17 | CCTCGGCCTTGGGTTCTAACCTGTTGCAT (site CCACGGCCTAT) | 0.0708
18 | CCTCGGCCTTGGGTTCTAACCTGTTGCAT (site CCTCGGCCTAT) | 0.862

Row | Sequence | recombinant barcode read abundance (log10)
19 | CCTCGTCCTTGGGTTCTAACCTGTTGCCC (site CCTCGTCCTGG) | 0.175
20 | CCTCGTCCTTGGGTTCTAACCTGTTGCCC (site TAGGACTCTAT) | 0.00798
21 | CCTCTGCCTTGGGTTCTAACCTGTTGCCT (site CCTCTGCCTAG) | 0.855
22 | CCTCTGCCTTGGGTTCTAACCTGTTGCCT (site CGTCTCCCTAG) | 0.103
23 | CCTGAATCTTGGGTTCTAACCTGTTGCCT (site CCTGAATCTAG) | 0.1
24 | CCTGAATCTTGGGTTCTAACCTGTTGCCT (site CCTGACTCTAG) | 0.19
25 | CCTGAATCTTGGGTTCTAACCTGTTGCCT (site CCTGAGTCTAG) | 0.279
26 | CCTGAATCTTGGGTTCTAACCTGTTGCCT (site CCTGATTCTAG) | 0.073
27 | CCTGAGTCTTGGGTTCTAACCTGTTGCCT (site CCTGAATCTAG) | 0.289
28 | CCTGAGTCTTGGGTTCTAACCTGTTGCCT (site CCTGACTCTAG) | 0.0437
29 | CCTGAGTCTTGGGTTCTAACCTGTTGCCT (site CCTGAGTCTAG) | 1.01
30 | CCTGAGTCTTGGGTTCTAACCTGTTGCCT (site CCTGATTCTAG) | 0.0908
31 | CCTGGGCCTTGGGTTCTAACCTGTTGCCT (site CATGGGCCTAG) | 0.0944
32 | CCTGGGCCTTGGGTTCTAACCTGTTGCCT (site CCTGGGCCTAG) | 0.11
33 | CCTGGGCCTTGGGTTCTAACCTGTTGCCT (site CGTGGGCCTAG) | 0.0559
34 | CCTGGGCCTTGGGTTCTAACCTGTTGCCT (site CTTGGGCCTAG) | 0
35 | CCTGGGTCTTGGGTTCTAACCTGTTGCTT (site CATGGGTCTAG) | 0.0557
36 | CCTGGGTCTTGGGTTCTAACCTGTTGCTT (site CCTGGGTCTAA) | 1.08
